Assay results taken from the supplement of paper PMC11061612.

What was measured:
[1] = system: KM-H2 (Hodgkin's Lymphoma); assay: combination Emax (second highest fraction inhibited in the dose matrix, 72 h); higher = more inhibition; extreme values may be limits of the assay
Outline: (§1)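 Bliss excess equals the observed combination effect minus the expected value EA + EB − EA·EB, where EA and EB are the effects of each agent alone. Combination Emax is the second-highest inhibition within the matrix. Inhibition was scaled from CellTiter-Glo 2.0 luminescence, with 0 set by vehicle wells and 1 by blank wells, after 72 hours of two-drug dosing of cells plated in 1536-well plates.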

[2] = system: TGBC24TKB (Biliary Tract Carcinoma); assay: as above
Outline: as §1

[3] = system: SUIT-2 (Pancreatic Carcinoma); assay: as above
Outline: as §1

[4] = system: SW780 (Bladder Carcinoma); assay: as above
Outline: as §1

[5] = system: SW756 (Cervical Carcinoma); assay: as above
Outline: as §1

RH-1 (Ewing's Sarcoma) = assay: as above
Outline: as §1

[6] = system: G-292-Clone-A141B1 (Osteosarcoma); assay: Bliss excess, mean over the matrix (fraction); higher = more synergy
Outline: as §1

[7] = system: LS-513 (Colorectal Carcinoma); assay: as above
Outline: as §1

SN12C (Kidney Carcinoma) = assay: as above
Outline: as §1

[8] = system: SW1088 (Low Grade Glioma); assay: as above
Outline: as §1

[9] = system: SW1783 (Low Grade Glioma); assay: as above
Outline: as §1

[10] = system: DOV13 (Ovarian Carcinoma); assay: as above
Outline: as §1

[11] = system: TE-5 (Esophageal Squamous Cell Carcinoma); assay: as above
Outline: as §1

[12] = system: KARPAS-1106P (B-Cell Non-Hodgkin's Lymphoma); assay: as above
Outline: as §1

ES7 (Ewing's Sarcoma) = assay: as above
Outline: as §1

[13] = system: MFH-ino (Other Solid Carcinomas); assay: as above
Outline: as §1

DSH1 (Bladder Carcinoma) = assay: as above
Outline: as §1

[14] = system: OCI-AML2 (Acute Myeloid Leukemia); assay: as above
Outline: as §1

[15] = system: MDA-MB-157 (Breast Carcinoma); assay: as above
Outline: as §1

SK-N-FI (Neuroblastoma) = assay: as above
Outline: as §1

| combination Emax [1] | SMILES | combination Emax [2] | combination Emax [3] | combination Emax [4] | combination Emax [5] | combination Emax (RH-1 (Ewing's Sarcoma)) | Bliss excess [6] | Bliss excess [7] | Bliss excess (SN12C (Kidney Carcinoma)) | Bliss excess [8] | Bliss excess [9] | Bliss excess [10] | Bliss excess [11] | Bliss excess [12] | Bliss excess (ES7 (Ewing's Sarcoma)) | Bliss excess [13] | Bliss excess (DSH1 (Bladder Carcinoma)) | Bliss excess [14] | Bliss excess [15] | Bliss excess (SK-N-FI (Neuroblastoma)) |
| --- | --- | --- | --- | --- | --- | --- | --- | --- | --- | --- | --- | --- | --- | --- | --- | --- | --- | --- | --- | --- |
| 0.939 | CS(=O)(=O)CCNCc1ccc(-c2ccc3ncnc(Nc4ccc(OCc5cccc(F)c5)c(Cl)c4)c3c2)o1 [Lapatinib] + NC1(c2ccc(-c3nc4ccn5c(=O)[nH]nc5c4cc3-c3ccccc3)cc2)CCC1 [MK-2206] (first compound max 10 µM, 7x7, partner max 10 µM) | 0.957 | 0.361 | 0.737 | 0.175 | 0.936 | -0.0004 | -0.0396 | -0.0236 | 0.0163 | -0.0201 | 0.0362 | 0.0735 | -0.0022 | 0.036 | -0.102 | 0.0917 | 0.0419 | -0.0057 | -0.0027 |
| – | Cc1c2c(nn1C)CSCc1cc(n(C)n1)CSc1cc(c3ccccc3c1)OCCCc1c(C(=O)O)n(C)c3c-2c(Cl)ccc13 [AZD5991] + CC(=O)O[C@H]1C(=O)[C@@]2(C)[C@H]([C@H](OC(=O)c3ccccc3)[C@]3(O)C[C@H](OC(=O)[C@H](O)[C@@H](NC(=O)c4ccccc4)c4ccccc4)C(C)=C1C3(C)C)[C@]1(OC(C)=O)CO[C@@H]1C[C@@H]2O [Paclitaxel] (first compound max 1 µM, 7x7, partner max 3 µM) | – | – | – | – | – | 0.0565 | -0.0216 | 0.0104 | -0.0192 | -0.0242 | -0.0492 | -0.0112 | 0.132 | -0.06 | -0.0321 | 0.0523 | -0.0046 | 0.078 | -0.0177 |
| – | C[C@@H]1COCCN1c1cc(C2([S@](C)(=N)=O)CC2)nc(-c2ccnc3[nH]ccc23)n1 [AZD6738] + C1CC(C1)(C(=O)[O-])C(=O)[O-].N.N.[Pt+2] [Carboplatin] (first compound max 10 µM, 7x7, partner max 10 µM) | – | – | – | – | – | 0.0001 | -0.0225 | -0.026 | -0.0426 | -0.0337 | -0.0236 | -0.0163 | -0.0247 | 0.0089 | -0.0397 | -0.0559 | -0.0318 | -0.0061 | -0.049 |
| – | O=C(c1cc(Cc2n[nH]c(=O)c3ccccc23)ccc1F)N1CCN(C(=O)C2CC2)CC1 [Olaparib] + Cc1c2c(nn1C)CSCc1cc(n(C)n1)CSc1cc(c3ccccc3c1)OCCCc1c(C(=O)O)n(C)c3c-2c(Cl)ccc13 [AZD5991] (first compound max 10 µM, 7x7, partner max 1 µM) | – | – | – | – | – | -0.0462 | -0.0082 | -0.053 | -0.0383 | -0.0388 | -0.0158 | -0.0427 | 0.0403 | 0.022 | -0.069 | -0.0097 | 0.0775 | -0.0291 | -0.0321 |
| – | Cc1cc2ncnn2cc1Nc1ncc2c(n1)n(C1CCOCC1)c(=O)n2C [AZD7648] + COc1cc([C@@H]2c3cc4c(cc3[C@@H](O[C@@H]3O[C@@H]5CO[C@@H](C)O[C@H]5[C@H](O)[C@H]3O)[C@H]3COC(=O)[C@H]23)OCO4)cc(OC)c1O [Etoposide] (first compound max 10 µM, 7x7, partner max 10 µM) | – | – | – | – | – | 0.0701 | 0.111 | 0.0424 | 0.032 | 0.0614 | 0.0276 | -0.0089 | 0.0551 | 0.052 | 0.0513 | 0.0627 | 0.175 | 0.0451 | -0.0258 |
| – | CN(CCO)CC[C@H](CSc1ccccc1)Nc1ccc(S(=O)(=O)NC(=O)c2ccc(N3CCC([C@@H](O)c4ccccc4-c4ccc(Cl)cc4)CC3)cc2)cc1S(=O)(=O)C(F)(F)F [AZD4320] + Nc1ccn([C@@H]2O[C@H](CO)[C@@H](O)C2(F)F)c(=O)n1 [Gemcitabine] (first compound max 1 µM, 7x7, partner max 0.3 µM) | – | – | – | – | – | -0.0015 | -0.0318 | 0.0195 | -0.0628 | 0.0546 | -0.0366 | 0.0559 | -0.0009 | -0.0271 | -0.0252 | 0.0381 | 0.0007 | -0.0349 | 0.0077 |
| – | O=C(c1cc(Cc2n[nH]c(=O)c3ccccc23)ccc1F)N1CCN(C(=O)C2CC2)CC1 [Olaparib] + COc1nnc2ccc(N3CCC(c4ccc(OCCN5CCN(C)C(=O)[C@H]5C)cc4)CC3)nn12 [AZD5153] (first compound max 10 µM, 7x7, partner max 1 µM) | – | – | – | – | – | -0.0523 | -0.0628 | -0.0222 | -0.0563 | -0.0177 | -0.0778 | -0.052 | -0.0162 | 0.0166 | -0.07 | -0.0925 | -0.02 | -0.0507 | -0.0577 |
| – | N#Cc1cnc(Nc2cc(NC[C@H]3CNCCO3)c(C(F)(F)F)cn2)cn1 [SRA737] + CCc1c2c(nc3ccc(O)cc13)-c1cc3c(c(=O)n1C2)COC(=O)[C@]3(O)CC [SN-38] (first compound max 10 µM, 7x7, partner max 0.3 µM) | – | – | – | – | – | 0.0099 | -0.114 | -0.0485 | -0.0339 | -0.038 | -0.0469 | -0.0682 | -0.0918 | -0.0138 | -0.0461 | -0.0809 | -0.0348 | 0.0125 | -0.121 |
| – | CC1(C)CCC(CN2CCN(c3ccc(C(=O)NS(=O)(=O)c4ccc(NCC5CCOCC5)c([N+](=O)[O-])c4)c(Oc4cnc5[nH]ccc5c4)c3)CC2)=C(c2ccc(Cl)cc2)C1 [Venetoclax] + CS(=O)(=O)CCNCc1ccc(-c2ccc3ncnc(Nc4ccc(OCc5cccc(F)c5)c(Cl)c4)c3c2)o1 [Lapatinib] (first compound max 1 µM, 7x7, partner max 10 µM) | – | – | – | – | – | -0.045 | -0.0203 | -0.0179 | -0.0313 | -0.0232 | -0.0228 | -0.0388 | -0.0183 | 0.0086 | -0.0699 | -0.021 | 0.0327 | -0.0549 | -0.0126 |
| – | O=C(c1cc(Cc2n[nH]c(=O)c3ccccc23)ccc1F)N1CCN(C(=O)C2CC2)CC1 [Olaparib] + CN(CC[C@H](CSC1=CC=CC=C1)NC2=C(C=C(C=C2)S(=O)(=O)NC(=O)C3=CC=C(C=C3)N4CCC(CC4)[C@H](C5=CC=CC=C5C6=CC=C(C=C6)Cl)O)S(=O)(=O)C(F)(F)F)CCO [AZD4320] (first compound max 10 µM, 7x7, partner max 1 µM) | – | – | – | – | – | -0.0275 | -0.0326 | -0.0401 | -0.0518 | -0.0391 | 0.0543 | -0.0436 | -0.035 | 0.0156 | -0.0594 | 0.0308 | 0.041 | -0.0094 | -0.0374 |
